Laboratory results taken from patent US20210353593A1 (Chinook Therapeutics, Inc., priority 2019, published 2021).
Like-named read-outs stand apart in the source and are kept apart here.

System: kidney tissue of g-ddY mice
[1] = 10 mg/kg/day vs untreated control
[2] = 20 mg/kg/day vs untreated control
[3] = 30 mg/kg/day vs untreated control

## CCCCN(CCCC)C(=O)CN1C[C@H](c2ccc3c(c2)OCO3)[C@@H](C(=O)O)[C@@H]1c1ccc(OC)cc1 [Atrasentan, (2R,3R,4S)-4-(1,3-benzodioxol-5-yl)-1-[2-(dibutylamino)-2-oxoethyl]-2-(4-methoxyphenyl)pyrrolidine-3-carboxylic acid]
10 mg/kg/day versus control
  number of downregulated genes: 15 genes
  number of upregulated genes: 25 genes
10 mg/kg/day vs control
  Acnat2 logFC: 0.9174
  Apoc1 logFC: −1.929
  Arnt1 logFC: 1.039
  Asl logFC: 0.707
  Bckdha logFC: 0.5492
  Bmp6 logFC: 0.7141
  Ccn1 logFC: −1.087
  Ccn2 logFC: −0.5379
  Cish logFC: −1.301
  Cryl1 logFC: 0.5206
  Dbp logFC: −1.205
  Dpep1 logFC: 0.6476
  Ethe1 logFC: 0.941
  Filipl1 logFC: −0.8186
  Frmd4b logFC: 0.6863
  Gapdh logFC: 0.6257
  Gem logFC: −1.508
  Gm15910 logFC: −1.397
  Hacl1 logFC: 0.6805
  Igf1 logFC: −0.8723
  Mapt logFC: 0.7035
  Mef2c logFC: −0.6217
  Mmd logFC: −1.012
  Mnt logFC: 0.6669
  Ndrg1 logFC: 0.9887
  Npas2 logFC: 1.415
  Nr4a1 logFC: −1.525
  Pde3b logFC: −0.6611
  Pdzd3 logFC: 0.7268
  Pdzk1ip1 logFC: 0.5308
  Pfkffb3 logFC: −1.166
  S100g logFC: 0.7546
  Sirt3 logFC: 0.7376
  Slc5a2 logFC: 0.7478
  Slc6a19 logFC: 0.8567
  Slc7a9 logFC: 0.5456
  Slc16a1 logFC: 0.9808
  Slc19a1 logFC: 0.6451
  Slc34a3 logFC: 0.8923
  Zeb2 logFC: −0.5638
[1]
  ET1 gene signature genes downregulated: Grk5, Mllt3, Klf2, Pparg, Hgf, Edn1, Fos, Ptgs2, and IL-1b
  ET1 gene signature genes upregulated: Ccnd1, Ppara, Agt, Map2k2 and Hoxa9
20 mg/kg/day versus control
  number of downregulated genes: 281 genes
  number of upregulated genes: 214 genes
20 mg/kg/day vs control
  1700101I11Rik logFC: 1.658
  A530016L24Rik logFC: −3.027
  Abcd2 logFC: −2.686
  Adcy2 logFC: −2.484
  Ankef1 logFC: −3.382
  Apol6 logFC: −3.616
  Aspdh logFC: 0.9646
  Bche logFC: −4.062
  C5ar2 logFC: −4.271
  Cadm3 logFC: −2.439
  Ccl8 logFC: −2.999
  Ccl20 logFC: −3.563
  Clec2h logFC: 1.078
  Cndp1 logFC: 0.9373
  Dio2 logFC: −3.823
  Dnase1 logFC: 1.086
  Ebf2 logFC: −3.715
  Fcamr logFC: 1.182
  Frs3 logFC: 1.094
  Ftcd logFC: 1.086
  Glis1 logFC: 0.8776
  Hao2 logFC: 0.9855
  Hrg logFC: 4.888
  Igibp1 logFC: 2.82
  Il1b logFC: −3.029
  Iv1 logFC: −3.8887
  Klf15 logFC: 0.8799
  Krt5 logFC: −3.044
  Lep logFC: −5.905
  Lgals12 logFC: −2.536
  Lhx1 logFC: 0.9258
  Ly6d logFC: −3.377
  Morn2 logFC: 0.9375
  Nat81 logFC: −3.263
  Ndrg1 logFC: 0.8946
  Npas2 logFC: 1.012
  Otop1 logFC: −5.808
  Paral1 logFC: −5.133
  Pfn3 logFC: 0.934
  Plekhs1 logFC: −3.661
  Prkar2b logFC: −2.468
  Prodh logFC: 0.8987
  Pvalb logFC: 0.9441
  Ren1 logFC: 1.117
  Slc6a19 logFC: 0.9585
  Slc34a3 logFC: 0.9345
  Sprr2a3 logFC: −4.403
  Tmem37 logFC: 0.9439
  Tns4 logFC: −2.381
[2]
  ET1 gene signature genes downregulated: Nfatc1, Grk5, Klf2, Cav1, Pparg, Itga5, Myc, Ednra, Sell, Hgf, Mmp2, Edn1, Syk, Fos, and IL-1b
  ET1 gene signature genes upregulated: Ccdn1, Cat, Ppara, Map2k2, Hoxa9, Agt, and Egfr
30 mg/kg/day
  Ednra and Ednrb gene expression: downregulated
30 mg/kg/day versus control
  number of downregulated genes: 768 genes
  number of upregulated genes: 910 genes
30 mg/kg/day vs control
  1700003D09Rik logFC: −2.087
  1700101I11Rik logFC: 1.613
  A530016L24Rik logFC: −3.0348
  Adamts17 logFC: −3.191
  Adcy2 logFC: −2.327
  Ankef1 logFC: −2.3582
  Arhgap36 logFC: −2.908
  Atf3 logFC: −2.22
  Bhmt logFC: 4.173
  Calb1 logFC: 1.211
  Ccl20 logFC: −2.471
  Chadl logFC: 1.41
  Clec2h logFC: 1.215
  Clec4d logFC: −4.65
  Cxcl2 logFC: −2.6664
  Cyp27b1 logFC: 1.35
  E030018B13Rik logFC: −2.373
  Ebf2 logFC: −2.386
  Ethe1 logFC: 1.211
  Fam163b logFC: −2.785
  Fat3 logFC: −2.067
  Frs3 logFC: 1.176
  G6pc logFC: 1.207
  Gm20026 logFC: −2.0755
  Igfbp1 logFC: 3.447
  Igkv3-5 logFC: −2.722
  Il1b logFC: −2.263
  Kcnk2 logFC: −2.431
  Kif1a logFC: −2.108
  Misp3 logFC: 1.307
  Mogat2 logFC: 1.285
  Ndrg1 logFC: 1.197
  Nepn logFC: 1.291
  Nkx3-1 logFC: 1.294
  Npas2 logFC: 1.394
  Pgam2 logFC: 1.24
  Plch2 logFC: −2.423
  Pvalb logFC: 1.389
  Ren1 logFC: 1.531
  Rnf182 logFC: −2.817
  S100g logFC: 1.296
  Slc6a19 logFC: 1.238
  Slc16a1 logFC: 1.178
  Slc34a3 logFC: 1.436
  Stx1b logFC: −2.245
  Tns4 logFC: −2.443
  Wnt10a logFC: −2.071
  Xirp2 logFC: −2.619
[3]
  ET1 gene signature genes downregulated: Ednrb, Myc, Mllt3, Hdac7, Ednra, Itga5, Grk5, Pparg, Klf2, Hgf, Mmp2, Sell, Sphk1, Fos, Syk, Edn1, and IL-1b
  ET1 gene signature genes upregulated: Ccnd1, Agt, Cat, Map2k2, Hoxa9, and Ppara
All three doses (10, 20, 30 mg/kg/day)
  ET1 (End1) gene expression: downregulated
Atrasentan treated mice
  genes overlapping with human specific Atra/ET1 gene signature: 53 of 60
